Source: ChEMBL document CHEMBL1201862, “PubChem BioAssay data set” (2004)
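Test compounds were applied to cells in 96-well plates for 48 hours at 5 doses. GI50 = concentration required for 50% inhibition of growth.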 Calls of active or inactive are those of the source. No stated cut-off is given here; in the data, active = GI50 up to about 1.1 µM and inactive = higher.

Experiments:
Assay in all cases: NCI tumour cell line growth inhibition, 48 h
[1] = tested on: A498
[2] = tested on: COLO 205
[3] = tested on: HCC 2998
[4] = tested on: HT-29
[5] = tested on: KM12
[6] = tested on: LOX IMVI
[7] = tested on: MDA-MB-435
[8] = tested on: MDA-N
[9] = tested on: Malme-3M
[10] = tested on: NCI-H23
[11] = tested on: OVCAR-8
[12] = tested on: RXF 393
[13] = tested on: SF-268
[14] = tested on: SF-295
[15] = tested on: SF-539
[16] = tested on: SK-MEL-2
[17] = tested on: SK-MEL-5
[18] = tested on: SK-OV-3
[19] = tested on: TK-10

Measured: GI50

CCN(C(=O)N[C@@H](C)C(=O)N[C@@H](Cc1ccccc1)C(=O)OC)c1ccccc1
inactive: [1] > 100 µM | [2] 31.5 µM | [3] 81.5 µM | [4] > 100 µM | [5] > 100 µM | [6] 31.2 µM | [7] > 100 µM | [8] > 100 µM | [9] 34.4 µM | [10] > 100 µM | [11] 51.3 µM | [12] > 100 µM | [13] > 100 µM | [14] 79.6 µM | [15] 34.5 µM | [16] 28.6 µM | [17] 95.9 µM | [18] > 100 µM | [19] > 100 µM

CC(C)[Si]1(C(C)C)OCC2OC(N3C(=O)NC(=O)C[C@@H]3C(O)c3ccccc3)CC2O[Si](C(C)C)(C(C)C)O1 (some centres not stated)
inactive: [1] 7.21 µM | [2] 9.86 µM | [3] 2.05 µM | [4] 2.48 µM | [5] 2.4 µM | [6] 5.24 µM | [7] 5.5 µM | [8] 4.3 µM | [9] 5.41 µM | [10] 7.98 µM | [11] 6.19 µM | [12] 5.27 µM | [13] 4.14 µM | [14] 4.51 µM | [15] 17 µM | [16] 13.4 µM | [17] 11.3 µM | [18] 5.71 µM | [19] 9.89 µM

CN(CC(=O)O)Cc1oc(CO)cc(=O)c1O
inactive: [1] > 100 µM | [2] > 100 µM | [3] > 100 µM | [4] > 100 µM | [5] > 100 µM | [6] > 100 µM | [7] > 100 µM | [8] > 100 µM | [9] > 100 µM | [10] > 100 µM | [11] > 100 µM | [12] > 100 µM | [13] > 100 µM | [14] > 100 µM | [15] > 100 µM | [16] > 100 µM | [17] > 100 µM | [18] > 100 µM | [19] > 100 µM

CC(=O)Oc1c(OC(C)C)cc(=O)n2ccsc12
inactive: [1] > 100 µM | [2] 30.1 µM | [3] > 100 µM | [4] > 100 µM | [5] > 100 µM | [6] > 100 µM | [7] 17.3 µM | [8] > 100 µM | [9] > 100 µM | [10] > 100 µM | [11] > 100 µM | [12] > 100 µM | [13] > 100 µM | [14] > 100 µM | [15] > 100 µM | [16] > 100 µM | [17] 62.8 µM | [18] > 100 µM | [19] > 100 µM

C[N+](C)(N)Cc1csc(-c2ccc(Cl)cc2)n1
inactive: [1] 88.5 µM | [2] > 100 µM | [3] > 100 µM | [4] > 100 µM | [5] > 100 µM | [6] > 100 µM | [7] > 100 µM | [8] > 100 µM | [9] 39.4 µM | [10] > 100 µM | [11] > 100 µM | [12] > 100 µM | [13] 46.5 µM | [14] 67.1 µM | [15] > 100 µM | [16] > 100 µM | [17] 61.5 µM | [18] > 100 µM | [19] > 100 µM

N#Cc1cccc(C2ON=C(c3ccc([N+](=O)[O-])cc3)N2C23CC4CC(CC(C4)C2)C3)c1 (configuration not stated)
inactive: [1] > 100 µM | [2] > 100 µM | [3] > 100 µM | [4] > 100 µM | [5] > 100 µM | [6] 74.1 µM | [7] > 100 µM | [8] > 100 µM | [9] 59.7 µM | [10] > 100 µM | [11] > 100 µM | [12] 13.1 µM | [13] > 100 µM | [14] 79.8 µM | [15] > 100 µM | [16] 16.7 µM | [17] 43.6 µM | [18] > 100 µM | [19] > 100 µM

O=C(C1OC1c1ccc([N+](=O)[O-])cc1)C12CC3CC(CC(C3)C1)C2 (configuration not stated)
inactive: [1] 20.9 µM | [2] 19.2 µM | [3] 20.7 µM | [4] 21.4 µM | [5] 14.7 µM | [6] 1.69 µM | [7] 12.3 µM | [8] 11.6 µM | [9] 16.9 µM | [10] 13.4 µM | [11] 16.6 µM | [12] 22.5 µM | [13] 18.5 µM | [14] 12.3 µM | [15] 15.3 µM | [16] 23.4 µM | [17] 15.6 µM | [18] 23.2 µM | [19] 18.1 µM

C=C(O)c1ccccc1C#Cc1ccccc1C(=O)OC
inactive: [1] > 10 µM | [2] > 10 µM | [3] > 10 µM | [4] > 10 µM | [5] > 10 µM | [6] > 10 µM | [7] > 10 µM | [8] > 10 µM | [9] > 10 µM | [10] > 10 µM | [11] > 10 µM | [12] > 10 µM | [13] > 10 µM | [14] > 10 µM | [15] > 10 µM | [16] > 10 µM | [17] > 10 µM | [18] > 10 µM | [19] > 10 µM
